According to PubChem BioAssay (NCI):
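Step 1: Grow cells in 96-well plates. Step 2: Expose to compound for 48 hours at 5 concentrations. Step 3: Interpolate endpoints linearly; if unreached, use highest concentration. Definition used: TGI = concentration required for complete inhibition of growth.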

Key:
Assay in all cases: DTP human tumour cell line panel, 48 h
786-0 renal = system: 786-0 renal
A498 renal = system: A498 renal
A549 NSCLC = system: A549 NSCLC
ACHN renal = system: ACHN renal
BT-549 breast = system: BT-549 breast
CAKI-1 renal = system: CAKI-1 renal
CCRF-CEM leukemia = system: CCRF-CEM leukemia
COLO 205 colon = system: COLO 205 colon
DU-145 prostate = system: DU-145 prostate
EKVX NSCLC = system: EKVX NSCLC
HCC-2998 colon = system: HCC-2998 colon
HCT-116 colon = system: HCT-116 colon
HCT-15 colon = system: HCT-15 colon
HL-60(TB) leukemia = system: HL-60(TB) leukemia
HOP-62 NSCLC = system: HOP-62 NSCLC
HOP-92 NSCLC = system: HOP-92 NSCLC
HS 578T breast = system: HS 578T breast
HT29 colon = system: HT29 colon
IGROV1 ovarian = system: IGROV1 ovarian
KM12 colon = system: KM12 colon
LOX IMVI melanoma = system: LOX IMVI melanoma
M14 melanoma = system: M14 melanoma
MALME-3M melanoma = system: MALME-3M melanoma
MCF7 breast = system: MCF7 breast
MDA-MB-231 breast = system: MDA-MB-231 breast
MDA-MB-435 = system: MDA-MB-435
MDA-N = system: MDA-N
MOLT-4 leukemia = system: MOLT-4 leukemia
NCI-H226 lung = system: NCI-H226 lung
NCI-H23 lung = system: NCI-H23 lung
NCI-H460 lung = system: NCI-H460 lung
NCI-H522 lung = system: NCI-H522 lung
NCI/ADR-RES ovarian = system: NCI/ADR-RES ovarian
OVCAR-3 ovarian = system: OVCAR-3 ovarian
OVCAR-4 ovarian = system: OVCAR-4 ovarian
OVCAR-5 ovarian = system: OVCAR-5 ovarian
OVCAR-8 ovarian = system: OVCAR-8 ovarian
PC-3 prostate = system: PC-3 prostate
RXF 393 renal = system: RXF 393 renal
SF-268 CNS = system: SF-268 CNS
SF-295 CNS = system: SF-295 CNS
SF-539 CNS = system: SF-539 CNS
SK-MEL-2 melanoma = system: SK-MEL-2 melanoma
SK-MEL-28 melanoma = system: SK-MEL-28 melanoma
SK-MEL-5 melanoma = system: SK-MEL-5 melanoma
SN12C renal = system: SN12C renal
SNB-19 CNS = system: SNB-19 CNS
SNB-75 CNS = system: SNB-75 CNS
SR leukemia = system: SR leukemia
SW-620 colon = system: SW-620 colon
T-47D breast = system: T-47D breast
TK-10 renal = system: TK-10 renal
U251 CNS = system: U251 CNS
UACC-257 melanoma = system: UACC-257 melanoma
UACC-62 melanoma = system: UACC-62 melanoma
UO-31 renal = system: UO-31 renal
DLD-1 colon = system: DLD-1 colon
DMS 114 small cell lung = system: DMS 114 small cell lung
DMS 273 small cell lung = system: DMS 273 small cell lung
HOP-18 NSCLC = system: HOP-18 NSCLC
K-562 leukemia = system: K-562 leukemia
KM20L2 colon = system: KM20L2 colon
LXFL 529 NSCLC = system: LXFL 529 NSCLC
M19-MEL melanoma = system: M19-MEL melanoma
RPMI-8226 leukemia = system: RPMI-8226 leukemia
SK-OV-3 ovarian = system: SK-OV-3 ovarian
SNB-78 CNS = system: SNB-78 CNS

For `CCOc1ccc(N=NC2C(=O)N(C(=O)CC(=O)Nc3ccccc3)N=C2C)cc1` (stereo not drawn), the TGI (786-0 renal) was > 100 µM, the TGI (A498 renal) was > 100 µM and the TGI (A549 NSCLC) was > 100 µM. For the same molecule, the TGI (ACHN renal) was > 100 µM, the TGI (BT-549 breast) was > 100 µM and the TGI (CAKI-1 renal) was > 100 µM. The TGI (CCRF-CEM leukemia) was > 100 µM, the TGI (COLO 205 colon) was > 100 µM and the TGI (DU-145 prostate) was > 100 µM. For the same molecule, the TGI (EKVX NSCLC) was > 100 µM, the TGI (HCC-2998 colon) was > 100 µM and the TGI (HCT-116 colon) was > 100 µM. The TGI (HCT-15 colon) was > 100 µM, the TGI (HL-60(TB) leukemia) was > 100 µM and the TGI (HOP-62 NSCLC) was > 100 µM. For the same molecule, the TGI (HOP-92 NSCLC) was 90.7 µM, the TGI (HS 578T breast) was 87.3 µM and the TGI (HT29 colon) was > 100 µM. For the same molecule, the TGI (IGROV1 ovarian) was > 100 µM, the TGI (KM12 colon) was > 100 µM and the TGI (LOX IMVI melanoma) was > 100 µM. The TGI (M14 melanoma) was > 100 µM, the TGI (MALME-3M melanoma) was > 100 µM and the TGI (MCF7 breast) was > 100 µM. The TGI (MDA-MB-231 breast) was > 100 µM, the TGI (MDA-MB-435) was 23.8 µM and the TGI (MDA-N) was 21.5 µM. The TGI (MOLT-4 leukemia) was > 100 µM, the TGI (NCI-H226 lung) was > 100 µM and the TGI (NCI-H23 lung) was > 100 µM. For the same molecule, the TGI (NCI-H460 lung) was > 100 µM, the TGI (NCI-H522 lung) was > 100 µM and the TGI (NCI/ADR-RES ovarian) was > 100 µM. The TGI (OVCAR-3 ovarian) was > 100 µM, the TGI (OVCAR-4 ovarian) was > 100 µM and the TGI (OVCAR-5 ovarian) was > 100 µM. For the same molecule, the TGI (OVCAR-8 ovarian) was > 100 µM, the TGI (PC-3 prostate) was > 100 µM and the TGI (RXF 393 renal) was > 100 µM. The TGI (SF-268 CNS) was > 100 µM, the TGI (SF-295 CNS) was > 100 µM and the TGI (SF-539 CNS) was > 100 µM. The TGI (SK-MEL-2 melanoma) was > 100 µM, the TGI (SK-MEL-28 melanoma) was > 100 µM and the TGI (SK-MEL-5 melanoma) was > 100 µM. For the same molecule, the TGI (SN12C renal) was > 100 µM, the TGI (SNB-19 CNS) was > 100 µM and the TGI (SNB-75 CNS) was > 100 µM. The TGI (SR leukemia) was > 100 µM, the TGI (SW-620 colon) was > 100 µM and the TGI (T-47D breast) was > 100 µM. For the same molecule, the TGI (TK-10 renal) was > 100 µM, the TGI (U251 CNS) was > 100 µM and the TGI (UACC-257 melanoma) was > 100 µM. For the same molecule, the TGI (UACC-62 melanoma) was > 100 µM and the TGI (UO-31 renal) was > 100 µM.

`O=C1C[C@@H]2[C@@H](CCC23CC3)N1` was tested, and the TGI (786-0 renal) was > 100 µM, the TGI (A498 renal) was > 100 µM and the TGI (A549 NSCLC) was > 100 µM. The TGI (CAKI-1 renal) was > 100 µM, the TGI (CCRF-CEM leukemia) was > 100 µM and the TGI (COLO 205 colon) was > 100 µM. The TGI (DLD-1 colon) was > 100 µM, the TGI (DMS 114 small cell lung) was > 100 µM and the TGI (DMS 273 small cell lung) was > 100 µM. For the same molecule, the TGI (EKVX NSCLC) was > 100 µM, the TGI (HCC-2998 colon) was > 100 µM and the TGI (HCT-116 colon) was > 100 µM. For the same molecule, the TGI (HL-60(TB) leukemia) was > 100 µM, the TGI (HOP-18 NSCLC) was > 100 µM and the TGI (HOP-62 NSCLC) was > 100 µM. For the same molecule, the TGI (HT29 colon) was > 100 µM, the TGI (IGROV1 ovarian) was > 100 µM and the TGI (K-562 leukemia) was > 100 µM. The TGI (KM12 colon) was > 100 µM, the TGI (KM20L2 colon) was > 100 µM and the TGI (LOX IMVI melanoma) was > 100 µM. For the same molecule, the TGI (LXFL 529 NSCLC) was > 100 µM, the TGI (M14 melanoma) was > 100 µM and the TGI (M19-MEL melanoma) was > 100 µM. For the same molecule, the TGI (MALME-3M melanoma) was > 100 µM, the TGI (NCI-H226 lung) was > 100 µM and the TGI (NCI-H23 lung) was > 100 µM. For the same molecule, the TGI (NCI-H460 lung) was > 100 µM, the TGI (NCI-H522 lung) was > 100 µM and the TGI (OVCAR-3 ovarian) was > 100 µM. The TGI (OVCAR-4 ovarian) was > 100 µM, the TGI (OVCAR-5 ovarian) was > 100 µM and the TGI (OVCAR-8 ovarian) was > 100 µM. The TGI (RPMI-8226 leukemia) was > 100 µM, the TGI (RXF 393 renal) was > 100 µM and the TGI (SF-268 CNS) was > 100 µM. For the same molecule, the TGI (SF-295 CNS) was > 100 µM, the TGI (SF-539 CNS) was > 100 µM and the TGI (SK-MEL-2 melanoma) was > 100 µM. The TGI (SK-MEL-28 melanoma) was > 100 µM, the TGI (SK-MEL-5 melanoma) was > 100 µM and the TGI (SK-OV-3 ovarian) was > 100 µM. For the same molecule, the TGI (SN12C renal) was > 100 µM, the TGI (SNB-19 CNS) was > 100 µM and the TGI (SNB-75 CNS) was > 100 µM. The TGI (SNB-78 CNS) was > 100 µM, the TGI (SW-620 colon) was > 100 µM and the TGI (TK-10 renal) was > 100 µM. For the same molecule, the TGI (U251 CNS) was > 100 µM, the TGI (UACC-257 melanoma) was > 100 µM and the TGI (UACC-62 melanoma) was > 100 µM. For the same molecule, the TGI (UO-31 renal) was > 100 µM.
